Data taken from PubChem BioAssay AID1963841 (Molecular Pharmacology Branch, DTP, NCI, 2024).
pIC50: −log10 of the molar value.

System: 439559-082-T-J2-PDC spheroid viability
Assay: Anticancer human tumor 439559-082-T-J2-PDC patient-derived colon adenocarcinoma cell line growth inhibition [POLQ]
Details: spheroids with HUVEC and MSC; for pIC50: curve of first compound; for viability, T/C: stronger effect = lower value
How it was run: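 Patient-derived tumour cells were co-cultured with HUVEC and mesenchymal stem cells as multicellular spheroids at 37 °C. They were treated with POLQ inhibitors (novobiocin, ART-558, RP6685) alone or combined with other agents. Top concentrations were at or near clinical Cmax (otherwise 10 microM; SN-38 at 1 microM), decreasing in half-log steps.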

[1] = second compound 0.0316 µM, first compound 0.0316 µM
[2] = second compound 0.0316 µM, first compound 0.1 µM
[3] = second compound 0.0316 µM, first compound 0.316 µM
[4] = second compound 0.0316 µM, first compound 1 µM
[5] = second compound 0.0316 µM, first compound 3.16 µM
[6] = second compound 0.0316 µM, first compound 10 µM
[7] = second compound 0.1 µM, first compound 0.0316 µM
[8] = second compound 0.1 µM, first compound 0.1 µM
[9] = second compound 0.1 µM, first compound 0.316 µM
[10] = second compound 0.1 µM, first compound 1 µM
[11] = second compound 0.1 µM, first compound 3.16 µM
[12] = second compound 0.1 µM, first compound 10 µM
[13] = second compound 0.316 µM, first compound 0.0316 µM
[14] = second compound 0.316 µM, first compound 0.1 µM
[15] = second compound 0.316 µM, first compound 0.316 µM
[16] = second compound 0.316 µM, first compound 1 µM
[17] = second compound 0.316 µM, first compound 3.16 µM
[18] = second compound 0.316 µM, first compound 10 µM
[19] = second compound 1 µM, first compound 0.0316 µM
[20] = second compound 1 µM, first compound 0.1 µM
[21] = second compound 1 µM, first compound 0.316 µM
[22] = second compound 1 µM, first compound 1 µM
[23] = second compound 1 µM, first compound 3.16 µM
[24] = second compound 1 µM, first compound 10 µM
[25] = second compound 3.16 µM, first compound 0.0316 µM
[26] = second compound 3.16 µM, first compound 0.1 µM
[27] = second compound 3.16 µM, first compound 0.316 µM
[28] = second compound 3.16 µM, first compound 1 µM
[29] = second compound 3.16 µM, first compound 3.16 µM
[30] = second compound 3.16 µM, first compound 10 µM
[31] = second compound 10 µM, first compound 0.0316 µM
[32] = second compound 10 µM, first compound 0.1 µM
[33] = second compound 10 µM, first compound 0.316 µM
[34] = second compound 10 µM, first compound 1 µM
[35] = second compound 10 µM, first compound 3.16 µM
[36] = second compound 10 µM, first compound 10 µM
[37] = second compound 0.0316 µM, first compound 0.00316 µM
[38] = second compound 0.0316 µM, first compound 0.01 µM
[39] = second compound 0.1 µM, first compound 0.00316 µM
[40] = second compound 0.1 µM, first compound 0.01 µM
[41] = second compound 0.316 µM, first compound 0.00316 µM
[42] = second compound 0.316 µM, first compound 0.01 µM
[43] = second compound 1 µM, first compound 0.00316 µM
[44] = second compound 1 µM, first compound 0.01 µM
[45] = second compound 3.16 µM, first compound 0.00316 µM
[46] = second compound 3.16 µM, first compound 0.01 µM
[47] = second compound 10 µM, first compound 0.00316 µM
[48] = second compound 10 µM, first compound 0.01 µM
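Note: spheroids exposed to compounds for seven days before readout.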
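Throughout, for viability, T/C: 100% = DMSO vehicle control viability.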

SMILES: CCCS(=O)(=O)Nc1ccc(F)c(C(=O)c2c[nH]c3ncc(-c4ccc(Cl)cc4)cc23)c1F + Nc1ccc(C#CCN(C(=O)Cc2ncc(C(F)(F)F)cc2C(F)(F)F)c2ccc(F)cc2)nn1
- pIC50 (second compound 0.0316 µM): 5.10
- pIC50 (second compound 0.1 µM): 5.10
- pIC50 (second compound 0.316 µM): 5.05
- pIC50 (second compound 1 µM): 5.07
- pIC50 (second compound 3.16 µM): 5.07
- pIC50 (second compound 10 µM): 5.08
- viability, T/C [1]: 66%
- viability, T/C [2]: 72.5%
- viability, T/C [3]: 94.9%
- viability, T/C [4]: 90.5%
- viability, T/C [5]: 78.2%
- viability, T/C [6]: 42.5%
- viability, T/C [7]: 79.8%
- viability, T/C [8]: 64.4%
- viability, T/C [9]: 92.4%
- viability, T/C [10]: 98.2%
- viability, T/C [11]: 82%
- viability, T/C [12]: 41.9%
- viability, T/C [13]: 65.4%
- viability, T/C [14]: 77%
- viability, T/C [15]: 93.4%
- viability, T/C [16]: 103%
- viability, T/C [17]: 88.7%
- viability, T/C [18]: 45.9%
- viability, T/C [19]: 52.6%
- viability, T/C [20]: 68.7%
- viability, T/C [21]: 95.9%
- viability, T/C [22]: 107%
- viability, T/C [23]: 81%
- viability, T/C [24]: 44.6%
- viability, T/C [25]: 61.6%
- viability, T/C [26]: 66.6%
- viability, T/C [27]: 103%
- viability, T/C [28]: 99.6%
- viability, T/C [29]: 91.5%
- viability, T/C [30]: 44.3%
- viability, T/C [31]: 60.9%
- viability, T/C [32]: 69.3%
- viability, T/C [33]: 89.4%
- viability, T/C [34]: 104%
- viability, T/C [35]: 85.6%
- viability, T/C [36]: 43.8%

SMILES: CCc1c2c(nc3ccc(O)cc13)-c1cc3c(c(=O)n1C2)COC(=O)[C@]3(O)CC + Nc1ccc(C#CCN(C(=O)Cc2ncc(C(F)(F)F)cc2C(F)(F)F)c2ccc(F)cc2)nn1
- pIC50 (second compound 0.0316 µM): < 6.00
- pIC50 (second compound 0.1 µM): < 6.00
- pIC50 (second compound 0.316 µM): < 6.00
- pIC50 (second compound 1 µM): < 6.00
- pIC50 (second compound 3.16 µM): 6.06
- pIC50 (second compound 10 µM): 6.08
- viability, T/C [37]: 102%
- viability, T/C [38]: 79.3%
- viability, T/C [1]: 75.1%
- viability, T/C [2]: 83.4%
- viability, T/C [3]: 81.6%
- viability, T/C [4]: 52.8%
- viability, T/C [39]: 91.4%
- viability, T/C [40]: 79.4%
- viability, T/C [7]: 71%
- viability, T/C [8]: 73.1%
- viability, T/C [9]: 75.7%
- viability, T/C [10]: 55.1%
- viability, T/C [41]: 88.5%
- viability, T/C [42]: 80.6%
- viability, T/C [13]: 63.4%
- viability, T/C [14]: 74.9%
- viability, T/C [15]: 90.4%
- viability, T/C [16]: 53.1%
- viability, T/C [43]: 93.3%
- viability, T/C [44]: 81%
- viability, T/C [19]: 75%
- viability, T/C [20]: 68.2%
- viability, T/C [21]: 86%
- viability, T/C [22]: 50.6%
- viability, T/C [45]: 87.5%
- viability, T/C [46]: 81.2%
- viability, T/C [25]: 69.2%
- viability, T/C [26]: 72.9%
- viability, T/C [27]: 81.5%
- viability, T/C [28]: 46.5%
- viability, T/C [47]: 92.6%
- viability, T/C [48]: 74.4%
- viability, T/C [31]: 76.8%
- viability, T/C [32]: 73.9%
- viability, T/C [33]: 80%
- viability, T/C [34]: 44.8%

SMILES: COc1cccc(OCCCN)c1-c1cc(Nc2cnc(C#N)cn2)n[nH]1 + Nc1ccc(C#CCN(C(=O)Cc2ncc(C(F)(F)F)cc2C(F)(F)F)c2ccc(F)cc2)nn1
- pIC50 (second compound 0.0316 µM): 6.47
- pIC50 (second compound 0.1 µM): 6.53
- pIC50 (second compound 0.316 µM): 6.49
- pIC50 (second compound 1 µM): 6.54
- pIC50 (second compound 3.16 µM): 6.65
- pIC50 (second compound 10 µM): 7.15
- viability, T/C [37]: 105%
- viability, T/C [38]: 95.1%
- viability, T/C [1]: 82.2%
- viability, T/C [2]: 68.4%
- viability, T/C [3]: 58.2%
- viability, T/C [4]: 23.1%
- viability, T/C [39]: 104%
- viability, T/C [40]: 99.3%
- viability, T/C [7]: 79.9%
- viability, T/C [8]: 66.7%
- viability, T/C [9]: 53%
- viability, T/C [10]: 22.8%
- viability, T/C [41]: 101%
- viability, T/C [42]: 97.6%
- viability, T/C [13]: 85.4%
- viability, T/C [14]: 69%
- viability, T/C [15]: 51.6%
- viability, T/C [16]: 24.8%
- viability, T/C [43]: 106%
- viability, T/C [44]: 105%
- viability, T/C [19]: 76.8%
- viability, T/C [20]: 70.6%
- viability, T/C [21]: 50.6%
- viability, T/C [22]: 22.4%
- viability, T/C [45]: 106%
- viability, T/C [46]: 95.6%
- viability, T/C [25]: 83.2%
- viability, T/C [26]: 67.7%
- viability, T/C [27]: 41.6%
- viability, T/C [28]: 20.4%
- viability, T/C [47]: 107%
- viability, T/C [48]: 96%
- viability, T/C [31]: 69.3%
- viability, T/C [32]: 42.4%
- viability, T/C [33]: 23.8%
- viability, T/C [34]: 20.7%

SMILES: O=C(c1cc(Cc2n[nH]c(=O)c3ccccc23)ccc1F)N1CCN(C(=O)C2CC2)CC1 + Nc1ccc(C#CCN(C(=O)Cc2ncc(C(F)(F)F)cc2C(F)(F)F)c2ccc(F)cc2)nn1
- pIC50 (second compound 0.0316 µM): < 5.00
- pIC50 (second compound 0.1 µM): < 5.00
- pIC50 (second compound 0.316 µM): < 5.00
- pIC50 (second compound 1 µM): < 5.00
- pIC50 (second compound 3.16 µM): < 5.00
- pIC50 (second compound 10 µM): < 5.00
- viability, T/C [1]: 93.4%
- viability, T/C [2]: 97.3%
- viability, T/C [3]: 93.4%
- viability, T/C [4]: 101%
- viability, T/C [5]: 94.3%
- viability, T/C [6]: 98%
- viability, T/C [7]: 93.1%
- viability, T/C [8]: 106%
- viability, T/C [9]: 89.1%
- viability, T/C [10]: 117%
- viability, T/C [11]: 92.8%
- viability, T/C [12]: 99.8%
- viability, T/C [13]: 91.5%
- viability, T/C [14]: 105%
- viability, T/C [15]: 86.8%
- viability, T/C [16]: 96.1%
- viability, T/C [17]: 106%
- viability, T/C [18]: 96.9%
- viability, T/C [19]: 104%
- viability, T/C [20]: 107%
- viability, T/C [21]: 94.1%
- viability, T/C [22]: 108%
- viability, T/C [23]: 84.7%
- viability, T/C [24]: 104%
- viability, T/C [25]: 88%
- viability, T/C [26]: 116%
- viability, T/C [27]: 98.3%
- viability, T/C [28]: 106%
- viability, T/C [29]: 103%
- viability, T/C [30]: 98.3%
- viability, T/C [31]: 92.8%
- viability, T/C [32]: 87.9%
- viability, T/C [33]: 95.5%
- viability, T/C [34]: 90.7%
- viability, T/C [35]: 98.2%
- viability, T/C [36]: 103%
